Our source for the IC50 and Ki values is patent publication US6927401B1, “Method of characterizing fluorescent molecules or other particles using generating functions” (Evotec OAI AG, priority 1999, dated 2005).

The subject of test [1] is monoclonal antibody exposed on the surface of hybridoma cell line HB-8152.
Experimental: The cell number of a confluent hybridoma culture was determined to be 1.6×10^6 per ml and aliquotes with approx. 0.5×10^6 hybridoma cells in 100 μl were used for each single experiment. The cells were washed in 100 μl phosphate buffered saline (PBS) buffer for 5 minutes to remove soluble antibody from the assay. Subsequently, the cells were incubated for 30 minutes in 100 μl PBS containing the theophylline-TAMRA conjugate at different concentrations: 0, 0.4, 2, 8, 16, 40, 200, 800 nM. […] The degree of fluorescence labelling of the hybridoma cells was determined for each single experiment in four independent measurements.
The next test deals with T1, EGF receptor (Homo sapiens, UniProt P00533).
T1 construct: endogenous in cells; host or cells: HCT (human colon carcinoma tumor) cells, crude membranes
As to the kind of experiment: FIDA competition assay, HCT membranes with TMR-EGF and competitor. The settings on record: binding normalized to absence of competitor, read-out: affinity (competition with TMR-EGF).

Experimental for EGF receptor: Binding was determined by the method according to the present invention and was normalized to that in the absence of competitor.

`Cn1c(=O)c2[nH]cnc2n(C)c1=O` [theophylline, 1,3-dimethylxanthine]: half-maximal inhibition in test [1] (IC50) required 250 nM.

For the compound “betacellulin: polypeptide growth factor with sequence identity with EGF, from R & D Systems”, the Ki with EGF receptor amounted to 0.23 ± 0.02 nM.
